Source: patent EP0268915A2, “Trifluoromethylcarbonyl derivatives” (BAYER AG, priority 1986, dated 1988)
Where two headings read alike, the source gives them in different places.

Legend:
Assay type in all cases: in vivo
Aphis fabae = test: Aphis test (systemic action, soil drench of bean plants); conditions: 96 h, read-out: Wirkung (Abtötung in %)
Method: Aphis-Test (systemische Wirkung)
(§1) Lösungsmittel: 7 Gewichtsteile Dimethylformamid Emulgator: 1 Gewichtsteil Alkylarylpolyglykolether
Zur Herstellung einer zweckmäßigen Wirkstoffzubereitung vermischt man 1 Gewichtsteil Wirkstoff mit der angegebenen Menge Lösungsmittel und der angegebenen Menge Emulgator und verdünnt das Konzentrat mit Wasser auf die gewünschte Konzentration.
Mit je 20 ml Wirkstoffzubereitung der gewünschten Konzentration werden Bohnenpflanzen (Vicia faba), die stark von der schwarzen Bohnenlaus (Aphis fabae) befallen sind, angegossen, so daß die Wirkstoffzubereitung in den Boden eindringt, ohne den Sproß zu benetzen. Der Wirkstoff wird von den Wurzeln aufgenommen und in den Sproß weitergeleitet.
Nach der gewünschten Zeit wird die Abtötung in % bestimmt. Dabei bedeutet 100 %, daß alle Blattläuse abgetötet wurden; 0 % bedeutet, daß keine Blattläuse abgetötet wurden.

Nephotettix cincticeps = test: Nephotettix test (rice seedlings dipped in the active compound preparation); conditions: for mortality at 0.0001 %: Nephotettix cincticeps, 144 h, read-out: Wirkung (Abtötung in %)
Description: as §1
Zur Herstellung einer zweckmäßigen Wirkstoffzubereitung vermischt man 1 Gewichstteil Wirkstoff mit der angegebenen Menge Lösungsmittel und der angegebenen Menge Emulgator und verdünnt das Konzentrat mit Wasser auf die gewünschte Konzentration.
Reiskeimlinge (Oryza sativa) werden durch Tauchen in die Wirkstoffzubereitung der gewünschten Konzentration behandelt und mit der Grünen Reiszikade (Nephotettix cincticeps) besetzt, solange die Keimlinge noch feucht sind.
Nach der gewünschten Zeit wird die Abtötung in % bestimmt. Dabei bedeutet 100 %, daß alle Zikaden abgetötet wurden; 0 % bedeutet, daß keine Zikaden abgetötet wurden.

[1] = system: Lucilia cuprina resistent-Larven; test: Test with resistant Lucilia cuprina larvae; conditions: 24 h, Wirkstoffkonzentration 100 ppm, nach 24 Stunden, read-out: Abtötung
Description: Test mit Lucilia cuprina resistent-Larven
Emulgator: 35 Gewichtsteile Ethylenglykolmonomethylether 35 Gewichtsteile Nonylphenolpolyglykolether
Zur Herstellung einer zweckmäßigen Wirkstoffzubereitung vermischt man drei Gewichtsteile Wirkstoff mit sieben Gewichtsteilen des oben angegebenen Gemisches und verdünnt das so erhaltene Konzentrat mit Wasser auf die jeweils gewünschte Konzentration.
Etwa 20 Lucilia cuprina res.-Larven werden in ein Teströhrchen gebracht, welches ca. 1 cm^3 Pferdefleisch und 0,5 ml der Wirkstoffzubereitung enthält. Nach 24 Stunden wird der Abtötungsgrad bestimmt.

Myzus persicae = test: Critical concentration test / root-systemic action, Myzus persicae; conditions: Wirkstoffkonzentration 20 ppm im Boden, Kohl (Brassica oleracea), Besatz nach 7 Tagen, Auswertung nach weiteren 2 Tagen; for mortality at 20 µg/mL: Myzus persicae, 48 h, read-out: wurzelsystemische Wirkung
Description: Grenzkonzentrations-Test / Wurzelsystemische Wirkung Testinsekt: Myzus persicae Lösungsmittel: 3 Gewichtsteile Aceton Emulgator: 1 Gewichtsteil Alkylarylpolyglykolether
(§2) Zur Herstellung einer zweckmäßigen Wirkstoffzubereitung vermischt man 1 Gewichtsteil Wirkstoff mit der angegebenen Menge Lösungsmittel, gibt die angegebene Menge Emulgator zu und verdünnt das Konzentrat mit Wasser auf die gewünschte Konzentration.
(§3) Die Wirkstoffzubereitung wird innig mit Boden vermischt. Dabei spielt die Konzentration des Wirkstoffs in der Zubereitung praktisch keine Rolle, entscheidend ist allein die Wirkstoffgewichtsmenge pro Volumeneinheit Boden, welche in ppm (= mg/1) angegeben wird. Man füllt den behandelten Boden in Töpfe und bepflanzt diese mit Kohl (Brassica oleracea). Der Wirkstoff kann so von den Pflanzenwurzeln aus dem Boden aufgenommen und in die Blätter transportiert werden.
(§4) Für den Nachweis des wurzelsystemischen Effektes werden nach 7 Tagen ausschließlich die Blätter mit den obengenannten Testtieren besetzt. Nach weiteren 2 Tagen erfolgt die Auswertung durch Zählen oder Schätzen der toten Tiere. Aus den Abtötungszahlen wird die wurzelsystemische Wirkung des Wirkstoffs abgeleitet. Sie ist 100 %, wenn alle Testtiere abgetötet sind und 0 %, wenn noch genau so viele Testinsekten leben wie bei der unbehandelten Kontrolle.

[2] = system: Phaedon cochleariae-Larven; test: Critical concentration test / root-systemic action, Phaedon cochleariae larvae; conditions: Wirkstoffkonzentration 20 ppm im Boden, Kohl (Brassica oleracea), Besatz nach 7 Tagen, Auswertung nach weiteren 2 Tagen
Description: Grenzkonzentrations-Test / Wurzelsystemische Wirkung Testinsekt: Phaedon cochleariae-Larven Lösungsmittel: 3 Gewichtsteile Aceton
Emulgator: 1 Gewichtsteil Alkylarylpolyglykolether
as §2, §3, §4

[3] = Wirkstoffkonzentration 0,01 %, nach 4 Tagen, Bohnenpflanzen (Vicia faba) angegossen, systemisch
[4] = Wirkstoffkonzentration 0,0001 %, nach 6 Tagen, Reiskeimlinge (Oryza sativa) getaucht

| SMILES | mortality at 0.01 % (Aphis fabae; [3]) [%] | mortality at 100 µg/mL [1] [%] | mortality at 20 µg/mL (Myzus persicae) [%] | wurzelsystemische Wirkung [2] | wurzelsystemische Wirkung (Myzus persicae) | also measured |
| --- | --- | --- | --- | --- | --- | --- |
| O=C(C(C(=O)C(F)(F)F)=C1NCCN1Cc1ccc(Cl)nc1)C(F)(F)F [Beispiel 5, 2-[(Di-trifluormethylcarbonyl)-methylen]-3-(6-chlor-pyrid-3-yl)-methylimidazolidin] | 100 | 100 | 100 | – | – | mortality at 0.0001 % (Nephotettix cincticeps; [4]): 100% |
| O=C(C=C1SCCN1Cc1ccc(Cl)nc1)C(F)(F)F [Beispiel 3, 3-(6-Chlor-pyrid-3-yl)-methyl-2-(trifluormethylcarbonylmethylen)-1,3-thiazolidin] | – | – | – | 100% | 100% | Wirkung (Abtötung in %) (Nephotettix cincticeps; [4]): 90% |
| O=C(C=C1NCCCN1Cc1ccc(Cl)nc1)C(F)(F)F [Beispiel 8] | 100 | 100 | 100 | – | – | mortality at 20 µg/mL ([2]; Phaedon, 48 h, read-out: wurzelsystemische Wirkung): 100% |
| O=C(C(C(=O)C(F)(F)F)=C1NCCCN1Cc1ccc(Cl)nc1)C(F)(F)F [Beispiel 9] | – | 100 | – | – | – | – |
| O=[N+]([O-])C=C1NCCCS1 [Vergleichssubstanz (A), Tetrahydro-2-nitromethylen-2H-1,3-thiazin, reference compound] | – | – | – | keine Wirkung | keine Wirkung | mortality at 0.01 % (Aphis fabae): 50%; mortality at 0.0001 % (Nephotettix cincticeps): 20% |
| O=C(C=C1NCCN1Cc1ccc(Cl)nc1)C(F)(F)F [Beispiel 4, 1-(6-Chlor-pyrid-3-yl)-methyl-2-(trifluormethylcarbonylmethylen)-imidazolidin] | 100 | 100 | 100 | – | – | – |
